Assay results reported in publication PMC7996082, “The translocator protein ligands as mitochondrial functional modulators for the potential anti-Alzheimer agents” (Journal of Enzyme Inhibition and Medicinal Chemistry, 2021).

Legend:
[1] = tested on: HT-22 (mouse hippocampal cells) cells treated with Aβ; assay: JC-1 assay: recovery of mitochondrial membrane potential (ΔΨm) after Aβ; type: cell-based; conditions: 5 μM compound, 5 μM Aβ, HT22 cells; 0% = Aβ-induced damaged condition, 100% = normal condition
Description: Thirty thousand HT-22 cells per well were seeded into a clear 96-well plate (FALCON) at 200 µL per well one day prior to assay. 750 mM of JC-1 (Stratagene) in DMSO stock solution was dissolved into phenol red-free Opti-MEM (GIBCO) medium to make final concentration of 7.5 mM JC-1 per well. Medium was removed from the plate, and 100 µL per well of JC-1 was added. The sample plates were incubated for 1 h and 15 min at 37 °C and washed twice with 100 µL per well of PBS. Subsequently, cells were treated with a 25 µL solution of each compound at 10 µM in Opti-MEM and incubated at 37 °C for 10 min followed by addition of a 25 µL of Aβ (American peptide, 1-42) solution at 10 µM. Fluorescence was measured at every one hour for three hours at ex/em 530 nm/580 nm (“red”) and ex/em 485 nm/530 nm (“green”) by using the Flexstation® 3 (Molecular Devices, USA) reader. The ratio of green to red fluorescence was calculated and normalised by taking the percent changes using vehicle control as 100%.
The selected 56 compounds were purchased and tested by in vitro cell-based assays. Four different cell-based assays (JC-1, MTT, ATP production, and cellular ROS assays) were carried out sequentially. First, the JC-1 assay was performed to screen all 56 compounds, VH001–VH056 (Supplementary Table S1). Since mitochondrial membrane depolarisation is one of the distinct signs of mPTP opening, the mitochondrial uptake of a fluorescent JC-1 dye (5,59,6,69-tetrachloro-1,19,3,39-tetraethylbenzimidazolocarbocyanine iodide) was measured to evaluate the effects of each compound on the mitochondrial membrane potential (ΔΨm). HT22 cells, a mouse hippocampal cell line, were treated with 5 µM of Aβ, incubated with each compound at the same concentration of 5 µM, and subsequently treated with JC-1. On the basis of changes in the red/green fluorescence intensity ratio between the cells treated with Aβ and control, the percent recovery of ΔΨm for each compound was calculated and normalised to the ΔΨm of healthy cells as 100%.
Compd Structure ∆Ψm at 5 Compd Structure ∆Ψm at 5 […]
a After the treatment of each compound (5 μM) and Aβ (5 μM) in HT22 cell, the increase of fluorescence ratio (green/red) was measured and normalized by taking the change of the ratio between 0% (Aβ-induced damaged condition) and 100% (normal condition in the absence of Aβ).

[2] = MTT assay: HT22 cell viability with compound alone; type: cell-based, mouse; conditions: mouse, HT22 cells; HT22 cell viability after 24 h of treatment with 5 μM compound, no Aβ
Description: To a clear 96-well plate (FALCON), the cultured HT-22 cells were seeded in a number of 5,000 per well 24 h prior to the assay. A solution of each test compound (5 µM, 25 µL) was added to each well. After 24 h of incubation at 37 °C, the cells were treated with a 10 µL of MTT solution (3–(4,5-dimethylthiazol-2-yl)-2,5-diphenyltetrazolium bromide, Sigma-Aldrich), incubated for 2 h at 37 °C, and were treated with 135 µL of MTT solubilising solution (10% Triton-X 100 in isopropanol with 0.1 M HCl) for 2 h at 37 °C. The % values of cell viability were determined by using the optical density (OD) values at 560 nm, and normalised by taking the vehicle control (5 µM of DMSO) as […].

CYP1A2 = molecular target: T1, CYP1A2 (Homo sapiens, UniProt P05177); assay: CYP inhibition assay (Vivid CYP450 screening kit); type: in vitro ADME; conditions: 10 μM compound
T1 construct: purchased Invitrogen, Madison, WI, USA
T1 sequence (P05177 2-516 limits assumed): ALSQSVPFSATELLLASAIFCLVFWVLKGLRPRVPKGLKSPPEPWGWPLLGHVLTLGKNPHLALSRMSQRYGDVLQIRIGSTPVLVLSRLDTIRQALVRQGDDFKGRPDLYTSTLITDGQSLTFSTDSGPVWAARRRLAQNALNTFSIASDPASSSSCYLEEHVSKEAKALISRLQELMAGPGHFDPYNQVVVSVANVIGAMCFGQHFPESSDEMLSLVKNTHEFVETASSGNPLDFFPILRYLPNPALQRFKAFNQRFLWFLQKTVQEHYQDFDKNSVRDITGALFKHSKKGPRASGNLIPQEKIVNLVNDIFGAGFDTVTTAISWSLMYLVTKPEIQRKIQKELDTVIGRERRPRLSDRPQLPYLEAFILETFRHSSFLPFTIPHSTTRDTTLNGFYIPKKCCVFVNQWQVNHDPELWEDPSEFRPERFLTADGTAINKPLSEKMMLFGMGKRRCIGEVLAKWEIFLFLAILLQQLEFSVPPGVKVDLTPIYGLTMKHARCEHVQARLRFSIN
Description: (§1) Human CYP450 (CYP1A2, 2D6, 2C9, 2C19, and 3A4) activities were determined by using the Vivid® CYP450 screening kit (Invitrogen, Madison, WI, USA) in a clear 96-well plate. Five positive controls were used as 10 mM solutions in MeCN for five different CYP450 enzymes: CYP1A2 (α-naphthoflavone), CYP2D6 (quinidine), CYP2C9 (sulfaphenazole), CYP2C19 (lansoprazole), and CYP3A4 (ketoconazole). Each sample (test compounds, positive inhibition controls, and solvent controls) was added into each well with the Master Pre-Mix [CYP450 BACULOSOMES® Reagent (recombinant human CYP450 isozyme and rabbit NADPHP450 reductase) and Regeneration System (3.3 mM glucose-6-phosphate and 0.3 U/ml glucose-6-phosphate dehydrogenase in 100 mM potassium phosphate, pH 8.0)]. The mixture was incubated for 5 min at 37 °C, and the Vivid® CYP substrates and 0.1 mM NADP^+ buffer were added to initiate the CYP450 enzyme reaction. The % remaining activities of CYP450 were measured after 20 min by using a fluorescent plate reader (Flexstation® 3, Molecular Devices, USA).

CYP2C19 = molecular target: T2, CYP2C19 (Homo sapiens, UniProt P33261); assay: CYP inhibition assay (Vivid CYP450 screening kit); type: in vitro ADME; conditions: 10 μM compound
T2 construct: purchased Invitrogen, Madison, WI, USA
T2 sequence (P33261 whole entry): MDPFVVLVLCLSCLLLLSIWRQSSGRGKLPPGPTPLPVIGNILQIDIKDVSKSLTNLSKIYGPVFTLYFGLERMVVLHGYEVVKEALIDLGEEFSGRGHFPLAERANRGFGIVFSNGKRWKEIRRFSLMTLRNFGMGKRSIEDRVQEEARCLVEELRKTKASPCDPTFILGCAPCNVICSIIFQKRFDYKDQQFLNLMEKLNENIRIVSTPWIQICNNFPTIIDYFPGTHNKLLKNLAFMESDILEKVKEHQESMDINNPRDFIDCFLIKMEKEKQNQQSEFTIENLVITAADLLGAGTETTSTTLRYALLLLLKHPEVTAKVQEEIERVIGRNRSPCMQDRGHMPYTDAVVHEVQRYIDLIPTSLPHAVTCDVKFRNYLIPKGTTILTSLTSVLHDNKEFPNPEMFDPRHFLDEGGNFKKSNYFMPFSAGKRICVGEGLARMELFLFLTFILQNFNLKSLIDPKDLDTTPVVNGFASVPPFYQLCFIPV
Description: as §1

CYP2C9 = molecular target: T3, CYP2C9 (Homo sapiens, UniProt P11712); assay: CYP inhibition assay (Vivid CYP450 screening kit); type: in vitro ADME; conditions: 10 μM compound
T3 construct: purchased Invitrogen, Madison, WI, USA
T3 sequence (P11712 whole entry): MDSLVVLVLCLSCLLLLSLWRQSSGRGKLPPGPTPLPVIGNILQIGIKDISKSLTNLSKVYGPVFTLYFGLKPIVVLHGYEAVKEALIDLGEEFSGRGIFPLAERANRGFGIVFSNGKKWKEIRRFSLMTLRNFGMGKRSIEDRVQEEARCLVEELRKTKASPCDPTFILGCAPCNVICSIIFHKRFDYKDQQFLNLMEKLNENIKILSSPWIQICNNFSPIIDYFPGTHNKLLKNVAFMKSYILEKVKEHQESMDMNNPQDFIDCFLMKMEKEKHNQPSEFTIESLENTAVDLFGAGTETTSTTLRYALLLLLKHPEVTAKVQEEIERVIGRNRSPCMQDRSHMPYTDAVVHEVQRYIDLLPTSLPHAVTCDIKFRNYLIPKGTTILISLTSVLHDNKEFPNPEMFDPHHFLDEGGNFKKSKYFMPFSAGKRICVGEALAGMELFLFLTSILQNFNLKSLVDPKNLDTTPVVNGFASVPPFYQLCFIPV
Description: as §1

CYP2D6 = molecular target: T4, CYP2D6 (Homo sapiens, UniProt P10635); assay: CYP inhibition assay (Vivid CYP450 screening kit); type: in vitro ADME; conditions: 10 μM compound
T4 construct: purchased Invitrogen, Madison, WI, USA
T4 sequence (P10635 whole entry): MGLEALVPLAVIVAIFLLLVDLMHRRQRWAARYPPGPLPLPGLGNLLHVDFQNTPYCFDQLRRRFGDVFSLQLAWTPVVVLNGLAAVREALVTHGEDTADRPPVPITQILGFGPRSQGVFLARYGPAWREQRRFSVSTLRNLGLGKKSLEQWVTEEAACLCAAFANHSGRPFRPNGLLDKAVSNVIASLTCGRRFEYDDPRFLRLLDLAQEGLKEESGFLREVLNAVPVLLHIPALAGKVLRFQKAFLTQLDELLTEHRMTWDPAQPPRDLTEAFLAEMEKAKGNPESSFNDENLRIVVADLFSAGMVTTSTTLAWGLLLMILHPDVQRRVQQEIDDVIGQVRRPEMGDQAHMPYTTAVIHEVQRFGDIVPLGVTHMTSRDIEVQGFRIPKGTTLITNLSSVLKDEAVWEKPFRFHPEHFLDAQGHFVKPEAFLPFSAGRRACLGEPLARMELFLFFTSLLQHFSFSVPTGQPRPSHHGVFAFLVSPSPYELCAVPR
Description: as §1

CYP3A4 = molecular target: T5, CYP3A4 (Homo sapiens, UniProt P08684); assay: CYP inhibition assay (Vivid CYP450 screening kit); type: in vitro ADME; conditions: 10 μM compound
T5 construct: purchased Invitrogen, Madison, WI, USA
T5 sequence (P08684 2-503 limits assumed): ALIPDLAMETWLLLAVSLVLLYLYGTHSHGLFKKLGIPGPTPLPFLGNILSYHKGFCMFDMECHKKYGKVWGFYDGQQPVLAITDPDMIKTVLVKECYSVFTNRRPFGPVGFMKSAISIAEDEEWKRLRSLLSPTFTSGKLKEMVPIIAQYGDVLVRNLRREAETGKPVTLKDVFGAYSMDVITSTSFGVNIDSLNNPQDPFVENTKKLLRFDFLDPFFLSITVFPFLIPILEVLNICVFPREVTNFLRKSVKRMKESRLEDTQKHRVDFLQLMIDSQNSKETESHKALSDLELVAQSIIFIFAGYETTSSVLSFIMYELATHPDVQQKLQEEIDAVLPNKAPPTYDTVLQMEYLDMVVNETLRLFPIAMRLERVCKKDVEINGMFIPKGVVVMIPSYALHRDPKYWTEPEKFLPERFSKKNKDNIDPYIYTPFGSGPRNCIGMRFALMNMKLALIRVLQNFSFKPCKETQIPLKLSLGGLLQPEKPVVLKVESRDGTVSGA
Description: as §1

hERG channel = molecular target: T6, hERG channel (Homo sapiens, UniProt Q12809); assay: hERG inhibition assay (automated patch-clamp, CHO-K1 Tet-On hERG cells); type: cell-based; conditions: patch-clamp, ± SD
T6 construct: host or cells: CHO-K1 Tet-On hERG cells
T6 sequence (Q12809 whole entry): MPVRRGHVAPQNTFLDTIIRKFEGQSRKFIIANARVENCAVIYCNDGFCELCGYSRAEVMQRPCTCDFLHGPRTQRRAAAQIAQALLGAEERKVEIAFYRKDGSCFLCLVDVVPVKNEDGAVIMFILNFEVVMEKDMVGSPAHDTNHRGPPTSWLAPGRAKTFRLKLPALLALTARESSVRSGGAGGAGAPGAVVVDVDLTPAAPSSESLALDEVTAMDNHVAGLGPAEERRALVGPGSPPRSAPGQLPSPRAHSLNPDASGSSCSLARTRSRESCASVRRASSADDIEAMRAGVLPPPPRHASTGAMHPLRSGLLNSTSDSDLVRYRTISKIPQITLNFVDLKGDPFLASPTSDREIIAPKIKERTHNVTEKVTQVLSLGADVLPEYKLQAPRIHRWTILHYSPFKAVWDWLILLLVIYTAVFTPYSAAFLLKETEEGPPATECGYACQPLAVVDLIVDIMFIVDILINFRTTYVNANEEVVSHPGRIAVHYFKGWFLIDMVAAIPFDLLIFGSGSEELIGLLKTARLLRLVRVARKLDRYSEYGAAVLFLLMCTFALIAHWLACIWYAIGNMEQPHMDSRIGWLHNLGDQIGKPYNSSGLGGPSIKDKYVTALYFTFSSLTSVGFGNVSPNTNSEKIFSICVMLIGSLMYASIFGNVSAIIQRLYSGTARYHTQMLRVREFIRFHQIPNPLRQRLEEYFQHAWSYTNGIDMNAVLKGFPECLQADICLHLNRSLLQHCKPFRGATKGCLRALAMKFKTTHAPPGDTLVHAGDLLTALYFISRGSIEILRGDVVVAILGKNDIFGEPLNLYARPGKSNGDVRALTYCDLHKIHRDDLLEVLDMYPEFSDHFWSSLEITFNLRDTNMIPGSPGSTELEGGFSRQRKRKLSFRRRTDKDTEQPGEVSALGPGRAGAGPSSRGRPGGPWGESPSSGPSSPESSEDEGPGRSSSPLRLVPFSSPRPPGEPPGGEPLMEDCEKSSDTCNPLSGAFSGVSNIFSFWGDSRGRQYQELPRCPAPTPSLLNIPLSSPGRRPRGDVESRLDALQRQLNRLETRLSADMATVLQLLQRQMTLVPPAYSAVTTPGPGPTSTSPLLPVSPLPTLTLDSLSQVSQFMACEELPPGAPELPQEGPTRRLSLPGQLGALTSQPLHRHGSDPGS
Description: For automated patch-clamp NPC-16 Patchliner (Nanion Technologies, München, Germany) recordings, CHO-K1 Tet-On hERG cells (IonGate Biosciences GmbH, Frankfurt, Germany) were plated into 100-mm cell culture dishes. Whole-cell currents were recorded with the intracellular solution containing: 50 mM KCl, 60 mM KF, 10 mM NaCl, 2 mM MgCl2, 20 mM EGTA and 10 mM HEPES (pH 7.2), and with the extracellular solution containing: 140 mM NaCl, 4 mM KCl, 2 mM CaCl2, 1 mM MgCl2, 5 mM Glucose and 10 HEPES (pH 7.4). To assist stable seal formations, the seal enhancer containing: 80 mM NaCl, 3 mM KCl, 35 mM CaCl2, 10 mM MgCl2 and 10 mM HEPES (pH 7.4) was used only at the seal formation step. Prior to the whole-cell recordings, the external seal enhancing solution was exchanged to the extracellular solution described above. hERG channel currents were recorded using the parallel EPC-10 patch-clamp amplifiers (HEKA Elektronik, Lambrecht/Pfalz, Germany), and low-pass filtered (10 kHz) with a 4-pole Bessel filter. Cell suspension and patch solutions were automatically added onto the four recording wells in the microfabricated disposable chip (NPC-16 Chip, Nanion Technologies, München, Germany). To obtain the inhibitory constants, hERG tail currents were evoked by repolarizing steps to −50 mV for 500 ms preceded by a 500-ms depolarisation potential of +20 mV at a holding potential of −80 mV with a 20-s sweep interval. Whole-cell currents were acquired and digitised at 5 kHz using Patchmaster (HEKA Elektronik, Lambrecht/Pfalz, Germany). The extracellular solution was exchanged to the extracellular solution containing each blocker via four pipette tips of NPC-16 Patchliner using a 4-fold volume of solution (40 µL) with a speed of 4 µL/s, and the exchanged blocker solution was applied for 100–200 s to the patch-clamped cells until blocker binding had reached equilibrium by monitoring hERG tail currents. Whole-cell recordings were analysed using the Patchmaster/Fitmaster (HEKA Elektronik, Lambrecht/Pfalz, Germany), IGOR Pro (WaveMetrics Inc., Portland, OR, USA), and the GraphPad Prism 4.0 (GraphPad Software, Inc., La Jolla, CA, USA) software.

[3] = Liver microsomal stability; type: in vitro ADME; conditions: human, liver microsomes, 1 µM compound, 0.5 mg/mL microsomes, 30 min, 37 °C; read-out: Human Liver Microsomal Stability (% remaining after 30 min)
Description: Liver microsomes (human, dog, rat, and mouse; 0.5 mg/mL) were incubated with 1 µM of each test compound in the presence of potassium phosphate buffer (PPB) for 5 min at 37 °C. A solution of the NADPH regeneration system (#44332000, Oriental Yeast Co., Japan) was added to begin metabolic reactions of liver microsomes. The resulting mixtures were incubated for 30 min at 37 °C, and the reaction was terminated by the addition of a cold MeCN solution containing an internal standard (chlorpropamide). The mixture was separated by centrifugation (14,000 rpm for 5 min at 4 °C), and the supernatant was analysed by LC-MS/MS (Shimadzu Nexera XR system and TSQ vantage; Thermo Scientific).

Row | CYP450 (% remaining Activity at 10 μM) CYP1A2 (CYP1A2) [%] | CYP450 (% remaining Activity at 10 μM) CYP2C19 (CYP2C19) [%] | CYP450 (% remaining Activity at 10 μM) CYP2C9 (CYP2C9) [%] | CYP450 (% remaining Activity at 10 μM) CYP2D6 (CYP2D6) [%] | CYP450 (% remaining Activity at 10 μM) CYP3A4 (CYP3A4) [%] | remaining at 0.5 h, 1 µM [3] [%] | Compound | Recovery of ΔΨm (%) [1] [%] | viability at 24 h, 5 µM [2] [%] | IC50 (hERG channel) [µM]
1 | – | – | – | – | – | – | CCc1ccc(-c2cc(C)no2)cc1S(=O)(=O)Nc1cc(OC)cc(OC)c1 [VH021] | 42 | – | –
2 | – | – | – | – | – | – | CCc1ccc(Nc2cc(C(=O)NCCc3cccc(C)c3)c3ccccc3n2)cc1 [VH029] | 18 | – | –
3 | 150.5 | 35.7 | 32.8 | 82.0 | 56.6 | < 10 | CCOc1ccc(-n2c(SCC(=O)N(CC)Cc3ccccc3)nc3sc4c(c3c2=O)CCN(C(C)=O)C4)cc1 [Compound 33] | – | 104 | 2.77 ± 1.18
4 | – | – | – | – | – | – | CCOc1ccc(-c2cc(C(=O)NCc3cccc(OC)c3)c3ccccc3n2)cc1 [VH025] | 12 | – | –
5 | 120.0 | 72.0 | 64.0 | 113.8 | 70.7 | 0.1 | CCOc1ccc(-n2c(SCC(=O)Nc3ccc(Cl)cc3)nc3sc4c(c3c2=O)CCN(C(C)=O)C4)cc1 [Compound 35] | – | 107 | 30 ± 10.2
6 | 160.6 | 56.8 | 32.9 | 92.6 | 15.0 | 0 | CCOc1ccc(-n2c(SCC(=O)NCc3ccc(Cl)cc3)nc3sc4c(c3c2=O)CCN(C(C)=O)C4)cc1 [Compound 34] | – | 97 | 4.13 ± 1.39
7 | – | – | – | – | – | – | CCN1CCCC1CNC(=O)c1cc(Nc2ccc(C)c(C)c2)nc2ccccc12 (stereo not drawn) [VH023] | 62 | – | –
8 | 117.3 | 23.3 | 30.9 | 91.7 | 49.3 | < 10 | CCOc1ccc(-n2c(SCC(=O)N(C)Cc3ccccc3)nc3sc4c(c3c2=O)CCN(C(C)=O)C4)cc1 [Compound 32] | – | 88 | 6.53 ± 2.46
9 | 98.7 | 52.5 | 105.8 | 61.4 | 44.1 | 82 | CCOc1ccc(-n2c(SCC(=O)N(CC)Cc3ccccc3)nc3sc4c(c3c2=O)CCN(C)C4)cc1 [Compound 51] | – | 107 | 10 ± 3.6
10 | 123.6 | 92.7 | 50.4 | 98.9 | 17.3 | 0 | CCOc1ccc(-n2c(SCC(=O)NCc3ccc(C)cc3)nc3sc4c(c3c2=O)CCN(C(C)=O)C4)cc1 [Compound 36] | – | 96 | 22 ± 12.7
11 | 117.2 | 16.1 | 86.9 | 36.6 | 42.6 | 67.6 | CCOc1ccc(-n2c(SCC(=O)NCc3ccc(Cl)cc3)nc3sc4c(c3c2=O)CCN(C)C4)cc1 [Compound 52] | – | 80 | 8.6 ± 0.83
